Several values for one entry are separate records, joined by “and”; a condition that tells them apart may be missing. Equal values may be shown once.
Experiment: Particle size analysis by Malvern Mastersizer 2000 (laser diffraction)
Assay type: physicochemical
Procedure: Two lots of 25HC3S sodium salt (Lot #A and Lot #B) were first passed through either 20 mesh or 35 mesh stainless steel sieves for particle size analysis. The particle sizes were further reduced by jet milling and analyzed again. All particle size analyses were determined using a Malvern Mastersizer 2000.
Fluid Energy Model 00 Jet-O-Mizer was used for all jet-milling. Malvern Mastersizer 2000 equipped with a Hydro 2000S dispersion cell was used for particle size analysis.
Approximately 60 mg of API was weighed into a 4 mL screw cap vial and 1 mL water, USP was added to the vial. […] Duplicate samples from each single sample preparation were analyzed.
Particle refractive index was assumed to be 1.53 (not measured by refractometer) and particle absorption index was 0.01. Dispersant (water, USP, presaturated with 25HC3 S) refractive index was 1.33. […] Throughout the measurement, the pump rate was 3000 rpm without sonication. The measurement integration time was 20,000 ms; the numbers of measurements for each sample were 5 with a 20 seconds delay in between two measurements. Analysis model: General purpose

[1] = 20 mesh sieve then Jet milling 1st pass (1st milling sample, feed rate not controlled), sodium salt
[2] = 20 mesh sieve then Jet milling 1st pass (2nd milling sample, feed rate 1 g/min)
[3] = 20 mesh sieve then Jet milling 2nd pass, sodium salt
[4] = 20 mesh sieve then Jet milling 3rd pass, sodium salt
[5] = Press through 20 mesh sieve with a stainless steel spatula, sodium salt
[6] = Press through 35 mesh sieve with a stainless steel spatula

Structure (SMILES): C[C@H](CCCC(C)(C)O)[C@H]1CC[C@H]2[C@@H]3CC=C4C[C@@H](OS(=O)(=O)[O-])CC[C@]4(C)[C@H]3CC[C@]12C.[Na+] [Lot# B, 25HC3S sodium salt]
- d (0.9) (20 mesh sieve then Jet milling 1st pass (1st milling sample, feed rate not controlled), listed as Lot #B, sodium salt): 22.07 μm and 16.17 μm
- d (0.1) [1]: 2.148 μm and 1.822 μm
- d (0.5) [1]: 6.858 μm and 5.126 μm
- d (0.9) [1]: 29.028 μm and 22.070 μm
- d (0.1) [2]: 1.253 μm
- d (0.5) [2]: 3.172 μm
- d (0.9) (20 mesh sieve then Jet milling 1st pass (2nd milling sample, feed rate 1 g/min), listed as Lot #B, sodium salt): 9.09 μm
- d (0.9) (20 mesh sieve then Jet milling 1st pass (2nd milling sample, feed rate 1 g/min), sodium salt): 9.090 μm
- d (0.1) [3]: 1.431 μm and 1.109 μm
- d (0.5) [3]: 4.192 μm and 3.920 μm
- d (0.9) [3]: 15.878 μm and 13.196^4 μm
- d (0.1) [4]: 0.976 μm and 0.651 μm
- d (0.5) [4]: 4.251 μm and 2.329 μm
- d (0.9) [4]: 16.17 μm
- d (0.1) [5]: 4.132 μm and 4.947 μm
- d (0.5) [5]: 15.439 μm and 21.437 μm
- d (0.9) [5]: 43.740 μm and 68.250 μm

Structure (SMILES): C[C@H](CCCC(C)(C)O)[C@H]1CC[C@H]2[C@@H]3CC=C4C[C@@H](OS(=O)(=O)[O-])CC[C@]4(C)[C@H]3CC[C@]12C.[Na+] [Lot# A, 25HC3S sodium salt]
- d (0.9) (20 mesh sieve then Jet milling 1st pass (1st milling sample, feed rate not controlled), listed as Lot #A, sodium salt): 5.180 μm
- d (0.1) [1]: 0.705 μm
- d (0.5) [1]: 2.091 μm
- d (0.9) [1]: 5.180 μm
- d (0.1) [3]: 0.384 μm and 0.496 μm
- d (0.5) [3]: 1.214 μm and 1.320 μm
- d (0.9) [3]: 4.026 μm and 4.035 μm
- d (0.9) (20 mesh sieve then Jet milling 3rd pass, listed as Lot #A, sodium salt): 2.755 μm
- d (0.1) [4]: 0.137 μm and 0.120 μm
- d (0.5) [4]: 0.664 μm and 0.580 μm
- d (0.9) [4]: 2.896 μm and 2.755 μm
- d (0.1) [5]: 2.268 μm and 2.474 μm
- d (0.5) [5]: 6.324 μm and 6.905 μm
- d (0.9) [5]: 18.712 μm and 20.290 μm
- d (0.1) [6]: 2.536 μm
- d (0.5) [6]: 7.147 μm
- d (0.9) [6]: 22.195 μm
